Measurements from patent US6410218B1, “Plasma-like solution” (BioTime, Inc., priority 1993, dated 2002).

How the values were obtained:
[1] = cited from earlier work
[2] = Buffering capacity in a cell-free system (addition of 1.25 M HCl); format: physicochemical
Procedure: By contrast, the pH of HLB solution (initial pH 7.7) drops below 7.2 with the addition of about 0.01 ml of a 1.25 M HCl solution.
When the solution of the present invention is used as a blood substitute at hypothermic temperatures, medical grade sterile NaHCO3 is added to the heat sterilized solution (HL solution). The solution containing NaHCO3 is called HLB solution. Under in vivo conditions with oxygenation, HLB solution is shown to maintain pH above 7.3 in temperatures ranging from 1.6-36.1° C. (Tables 2 and 3).

| initial pH ([2]; cell-free solution before HCl addition) | volume of 1.25 M HCl solution added with pH maintained above 7.2 ([2]; cell-free, initial pH about 7.7) | Compound | share of dose eliminated in the urine ([1]; 500 ml intravenous dose of 6% solution, after 24 hours) | share of dose remaining circulating ([1]; after 1 week) |
| --- | --- | --- | --- | --- |
| – | – | hydroxyethyl starch | approximately 33% | Approximately 10% |
| about 7.7 | up to 0.12 mls | NCC(CO)(CO)CO [25 mM TRIS, Tris[Hydroxymethyl]methyl aminomethane] | – | – |
